# Where a SMILES comes first, the peptide text is derived from it. [ ]: non-standard residue; d: D form. dLac(3-vinyl) = C=CC[C@@H](O)C(=O)O; dHica = CC(C)C[C@@H](O)C(=O)O; NMeV = CN[C@H](C(=O)O)C(C)C; NMeA = CN[C@@H](C)C(=O)O; βAla = NCCC(=O)O
# System: Hepatitis B virus
# Test: Antiviral activity against Hepatitis B virus infected in human Hep3B cells assessed as surface antigen production
# Type: functional, organism-based, Hep 3B2
row,Compound,IC50 [µg/mL]
1,CC[C@H](C)[C@@H]1NC(=O)[C@@H]2CCCN2C(=O)[C@@H](CC(C)C)OC(=O)CCNC(=O)[C@H](C)N(C)C(=O)[C@H](C(C)C)N(C)C1=O (cyclo(I[NMeV][NMeA][βAla][dHica]P)),0.2
2,C=CC[C@H]1OC(=O)CCNC(=O)[C@H](C)N(C)C(=O)[C@H](C(C)C)N(C)C(=O)[C@H]([C@@H](C)CC)NC(=O)[C@@H]2CCCN2C1=O (cyclo(I[NMeV][NMeA][βAla][dLac(3-vinyl)]P)),0.1
3,C=CC[C@H]1OC(=O)CCNC(=O)[C@H](C)N(C)C(=O)[C@H](C(C)C)NC(=O)[C@H]([C@@H](C)CC)NC(=O)[C@@H]2CCCN2C1=O [DESMETHYLDESTRUXIN A],1.2
4,CC[C@H](C)[C@@H]1NC(=O)[C@@H]2CCCN2C(=O)[C@@H](CC(C)C)OC(=O)CCNC(=O)[C@H](C)N(C)C(=O)[C@H](C(C)C)NC1=O [DESMETHYLDESTRUXIN B] (cyclo(IV[NMeA][βAla][dHica]P)),0.6
5,CC(C)C[C@H]1OC(=O)CCNC(=O)[C@H](C)N(C)C(=O)[C@H](C(C)C)N(C)C(=O)[C@H](C(C)C)NC(=O)[C@@H]2CCCN2C1=O [DESTRUXIN B2] (cyclo([NMeA][βAla][dHica]PV[NMeV])),0.3

# Further lines, results first:
row,IC50 [µg/mL],Compound
1,1.5,CC(C)C[C@H]1OC(=O)CCNC(=O)[C@H](C)N(C)C(=O)[C@H](C(C)C)NC(=O)[C@H](C(C)C)NC(=O)[C@@H]2CCCN2C1=O [DESMETHYLDESTRUXIN B2] (cyclo([NMeA][βAla][dHica]PVV))
2,0.4,C=CC[C@H]1OC(=O)CCNC(=O)[C@H](C)N(C)C(=O)[C@H](C(C)C)N(C)C(=O)[C@H](C(C)C)NC(=O)[C@@H]2CCCN2C1=O [DESTRUXIN A2] (cyclo([NMeA][βAla][dLac(3-vinyl)]PV[NMeV]))
